Measured values taken from US9453004B2, “Formylated xanthocillin analogues as neuroprotective agents” (NEURON BIOPHARMA, S.A., priority 2012, dated 2016).

Key:
[1] = test system: SK-N-MC human neuroblastoma culture cells; assay: XXO-induced cell death in real time (RTCA cell index); assay type: cell-based; details: 20 hours post-treatment
Protocol: These cells, not exceeding 15 passages, were seeded on E-plate 16 specific for a real time assay with the RTCA system (Real-Time Cell Analyzer, […], Roche) with a cell density of 5×10^4 cells/well. After 24 hours of cell incubation at 37° C. and 5% CO2, the cell treatments for the control conditions (culture medium); XXO (10 μM xanthine/60 mU/mL xanthine oxidase); XXO plus […] or […] at 10, 40, 100, 400, 1000 or 4000 ng/ml, were performed. The cells were incubated (at 37° C. and 5% CO2) with these treatments for 72 hours, was monitored every 10 minutes. The values that are obtained are arbitrary units indicated by the cell index, calculated from the impedance data, which is a electrical parameter that establishes the relationship between the voltage and current intensity of the adhered cells which is used as a measurement of cell viability. […] The assay was performed following the same method as the one described in Example 6, testing the analogues at 40, 100, 400 or 1000 ng/ml in the presence of XXO. The cells were incubated (at 37° C. and 5% CO2) with these treatments for 72 hours, and was monitored every 10 minutes. The values that are obtained are arbitrary units indicated by cell index, calculated from the impedance data and used as a measurement of cell viability.

[2] = ABTS*+ method, in vitro antioxidant capacity for lipophilic compounds; assay type: biochemical; details: for 0.1 μg of each compound
Text: Based on the preceding results, the inventors decided to evaluate the in vitro antioxidant capacity of the synthesized analogues, using an antioxidant capacity measurement assay valid for lipophilic compounds, according to the ABTS*^+ method (Samaniego et al. 2007. Analytica Chimica Acta 593: 103-107). This method is based on forming the ABTS*^+ radical cation by means of oxidation with ammonium persulfate of the ABTS reagent [2,2′-azino-bis(3-ethylbenzothiazoline-6-sulfonic acid], which can be colorimetrically determined. In this assay, the compounds with antioxidant capacity suppress the oxidation of the radical in a concentration-dependent manner. A standard curve with increasing concentrations of trolox (hydrosoluble vitamin E analogue) is used to quantify antioxidant capacity, such that the results are indicated as a measurement of trolox equivalents (TE). The results obtained for analogues NPS0158 and NPS0159 are 174±13 μM TE and 165±44 μM TE, respectively, for 0.1 μg of each compound, so they show high in vitro antioxidant capacity.

[3] = test system: SK-N-MC human neuroblastoma culture cells; assay: ROS measurement (H2DCFDA, normalized by LDH) in cells treated with XXO; assay type: cell-based
Protocol: Based on the preceding results, the inventors decided to evaluate the antioxidant capacity of the analogues in a cell model. The ROS measurement assay was performed on SK-N-MC human neuroblastoma culture cells, maintained as detailed in Example 2, subjected to aggression with xanthine/xanthine oxidase (XXO). The ROS measurement is taken by means of adding a permeable non-fluorescent probe in live cells (2′,7′-dichlorodihydrofluorescein diacetate, H2DCFDA; Biotium) which is oxidized by the action of ROS, generating 2′,7′-dichlorofluorescein (DCF) which can be detected in a fluorometer at 485 nm of excitation and 538 nm of emission. The fluorescence results were normalized by cell viability, measured by means of lactate dehydrogenase (LDH) activity, using the Roche Cytotoxicity Detection Kit (LDH). The results obtained with the analogues on the production of ROS are shown in FIG. 29 as the percentage of ROS corrected by LDH with respect to treatment with XXO of each analogue in a dose-response curve. A known ROS reduction control compound (C+) was used. * indicates the significant difference with respect to treatment with XXO according to the Student's t test (p<0.05).

[4] = test system: SK-N-MC human neuroblastoma culture cells; assay: Camptothecin-induced apoptosis (DNA fragmentation, flow cytometry) in SK-N-MC cells; assay type: cell-based; details: CPT
Protocol: Based on the preceding results, the researchers decided to analyze the antiapoptotic effect of compounds NPS0155 and NPS0156. The assays were performed on two SK-N-MC human neuroblastoma culture cell lines stably transfected with constructs expressing the amyloid precursor protein (APP) gene encoding for the isoform primarily expressed in the brain, containing 695 amino acids cloned into the expression vector pcDNA3.1 (Invitrogen). One of the lines expresses the wild-type APP (APPwt) gene and the other line expresses the gene APP with the Swedish mutation (APPswe) which is a double mutation in exon 16 of the gene and produces a G to T transversion yielding the change of amino acid Lys595Asn and another A to C transversion causing the Met596Leu change, said mutation being related to the senile or hereditary forms of Alzheimer's disease. The cells were maintained as the parent cells SK-N-MC, as detailed in Example 2, using geneticin at 400 μg/ml as a selection antibiotic. To determine the effect of compounds NPS0155 and NPS0156 on apoptosis (programmed cell death), DNA fragmentation was analyzed by means of flow cytometry, produced by treatment with camptothecin (CPT) inhibiting the topoisomerase I enzyme, which impedes DNA duplication and triggers apoptotic cell death. The two cell lines, not exceeding 10 passages, were seeded on 12-well microtite plate treated for adherent cells with a cell density of 4×10^5 cells/well. After 24 hours of cell incubation at 37° C. and 5% CO2, the pre-treatment of the cells with 4 and 10 μg/mL of NPS0155 or of NPS0156 for 24 hours was performed; they were subsequently treated with 50 μM CPT for 6 hours. After treatment, the cells were collected together with their culture medium and centrifuged at 300×g for 5 minutes. The medium was removed, the cells were washed with PBS solution and were fixed for 2 minutes with 500 μL of 70% ethanol at −20° C. Once they were fixed, they were centrifuged at 400×g for 5 minutes, washed with PBS and labeled with 0.05 mg/mL of propidium iodide, diluted in cycle buffer (0.1% citrate sodium, 0.3% Nonidet P-40 and 0.02 mg/mL RNAse), and were incubated for 1 hour at 37° C. They were maintained at 4° C. for 18 hours and after this time, they were analyzed by flow cytometry, measuring propidium iodide fluorescence as DNA content distribution.
Continuing with the study, the researchers decided to analyze the antiapoptotic effect of the synthesized analogues by analyzing cellular DNA fragmentation by means of flow cytometry. The cellular fragmentation measurement assay was performed on SK-N-MC human neuroblastoma culture cells, maintained as detailed in Example 2, and subjected to an aggression with camptothecin (CPT), following the same approach as the one described in Example 8. […]

[5] = in vitro; details: PAMPA; for Papp at 4 h / percentage of permeability: pig; for percentage of permeability: 4 h
Protocol: A mixture of lipids derived from pig brain, with a phospholipid composition very similar to the composition forming the human BBB, and referred to as PBL (Porcine Polar Brain Lipid, Avanti Polar Lipids Inc) which is prepared in microtiter plates with a MAIPNTR10 filter (Millipore), with a PVDF membrane and pore size of […], was used to mimic the blood-brain barrier. […] The percentage of barrier crossing and the effective permeability (Pe) were calculated based on the absorbance data obtained. The following formula was applied to calculate the Pe: […]

[6] = TEAC in vitro antioxidant capacity assay; assay type: biochemical
Text: Based on the preceding results, the inventors decided to evaluate in vitro antioxidant capacity of the extract, for which the TEAC assay ([…]) was used. This method is based on the formation of the ferryl-myoglobin radical produced by reacting metmyoglobin with hydrogen peroxide, followed by the oxidation of the ABTS [2,2′-azino-bis(3-ethylbenzthiazoline-6-sulfonic acid] reagent by ferryl-myoglobin, which produces the radical cation ABTS*+, which can be colorimetrically determined. In this assay, the compounds with antioxidant capacity suppress the production of the radical in a concentration-dependent manner. A standard curve with increasing concentrations of trolox (6-hydroxy-2,5,7,8-tetramethylchroman-2-carboxylic acid, hydrosoluble vitamin E analogue) is used to quantify antioxidant capacity, such that the results are indicated as a measurement of trolox equivalents (TE).
Based on the preceding results, the researchers decided to analyze the in vitro antioxidant capacity of compounds NPS0155 and NPS0156 by means of the TEAC assay, described in Example 2. A standard curve with increasing concentrations of trolox (hydrosoluble vitamin E analogue) was used to quantify antioxidant capacity, such that the results are indicated as a measurement of trolox equivalents (TE).

[7] = test system: SK-N-MC cells expressing wild-type APP (APPwt); assay: Camptothecin-induced apoptosis (DNA fragmentation, flow cytometry) in APPwt cells; assay type: cell-based, human; details: pre-treatment 24 hours at 4 and 10 μg/ml, then 50 μM CPT for 6 hours
Protocol: (§1) Based on the preceding results, the researchers decided to analyze the antiapoptotic effect of compounds NPS0155 and NPS0156. The assays were performed on two SK-N-MC human neuroblastoma culture cell lines stably transfected with constructs expressing the amyloid precursor protein (APP) gene encoding for the isoform primarily expressed in the brain, containing 695 amino acids cloned into the expression vector pcDNA3.1 (Invitrogen). One of the lines expresses the wild-type APP (APPwt) gene and the other line expresses the gene APP with the Swedish mutation (APPswe) which is a double mutation in exon 16 of the gene and produces a G to T transversion yielding the change of amino acid Lys595Asn and another A to C transversion causing the Met596Leu change, said mutation being related to the senile or hereditary forms of Alzheimer's disease. […] To determine the effect of compounds NPS0155 and NPS0156 on apoptosis (programmed cell death), DNA fragmentation was analyzed by means of flow cytometry, produced by treatment with camptothecin (CPT) inhibiting the topoisomerase I enzyme, which impedes DNA duplication and triggers apoptotic cell death. […] They were maintained at 4° C. for 18 hours and after this time, they were analyzed by flow cytometry, measuring propidium iodide fluorescence as DNA content distribution.

[8] = test system: SK-N-MC cells expressing APP with the Swedish mutation (APPswe); assay: Camptothecin-induced apoptosis (DNA fragmentation, flow cytometry) in APPswe cells; assay type: cell-based, human; details: pre-treatment 24 hours at 4 and 10 μg/ml, then 50 μM CPT for 6 hours
Protocol: as §1

In the case of Cc1ccc(/C=C(NC=O)/C(=C/c2ccc(C)cc2)NC=O)cc1 [NPS0158, (1Z,2Z)-2-(formylamino)-1-(4-methylbenzylidene)-3-(4-methylphenyl)prop-2-enylformamide], the “maximum protection against death caused by XXO” value (“maximum protection … by XXO” below) ([1]; at 1000 ng/ml) is reported as 27%, the “antioxidant capacity, trolox equivalents (TE)” value (“antioxidant capacity” for short) [2] is reported as 174±13 μM TE and the “maximum ROS reduction (ROS corrected by LDH, with respect to XXO)” value (“maximum ROS reduction” for short) ([3]; at 100 ng/ml) is reported as 34%. For the same molecule, the “maximum protection against apoptosis” value ([4]; at 10 μg/ml) was 28%, the “BBB permeability (conclusion)” value [5] was “moderate” and the Papp at 4 h [5] was 5.19 ×10⁻⁶ cm/s. The percentage of permeability [5] was 13%.
With O=CNC(=C\c1ccc(O)cc1)/C(=C/c1ccc(O)cc1)NC=O [NPS0156, (1Z,3Z)-1,4-Di(4-hydroxyphenyl)-2,3-diformamido-1,3-butadiene] the “antioxidant capacity” value [6] was 104±29 μM TE/μg of compound, the “maximum protection … by XXO” value ([1]; at 100 ng/ml) was 69% and the “protection against apoptosis caused by CPT” value (“protection … by CPT” for short) [7] was “Protection by NPS0156 was observed at the two tested doses”. For the same molecule, the “protection … by CPT” value [8] was “Protection by NPS0156 was observed at the two tested doses”.
For O=CNC(=C\c1ccc(O)cc1)/C(=C/c1ccc(O)c(O)c1)NC=O [NPS0155, (1Z,3Z)-1-(3,4-dihydroxyphenyl)-4-(4-hydroxyphenyl)-2,3-diformamido-1,3-butadiene], the “antioxidant capacity” value [6] was 81±19 μM TE/μg of compound, the “maximum protection … by XXO” value ([1]; at 100 ng/ml) was 27% and the “protection … by CPT” value [7] was “Protection by NPS0155 was observed at the two tested doses”. For the same molecule, the “protection … by CPT” value [8] was “Protection by NPS0155 was observed at the two tested doses”.
With CCOc1ccc(/C=C(NC=O)/C(=C/c2ccc(OCC)cc2)NC=O)cc1 [NPS0160, (1Z,2Z)-2-(formylamino)-1-(4-ethoxybenzylidene)-3-(4-ethoxyphenyl)prop-2-enylformamide] the “maximum protection … by XXO” value ([1]; at 100 ng/ml) was 23%, the “maximum ROS reduction” value ([3]; at 100 ng/ml) was 31% and the “maximum protection against apoptosis” value ([4]; at 1 μg/ml) was 30%.
For Cc1ccc(/C=C(NC=O)/C(=C/c2ccc(C)c(C)c2)NC=O)cc1C [NPS0161, (1Z,2Z)-1-(3,4-dimethylbenzylidene)-3-(3,4-dimethylphenyl)-2-(formylamino)-prop-2-enylformamide], the “maximum protection … by XXO” value ([1]; at 100 ng/ml) was 26%, the “maximum ROS reduction” value ([3]; at 400 ng/ml) was 45% and the “maximum protection against apoptosis” value ([4]; at 0.1 μg/ml) was 35%. The “BBB permeability (conclusion)” value [5] was “high”, the Papp at 4 h [5] was 14.7 ×10⁻⁶ cm/s and the percentage of permeability [5] was 29%.
With O=CNC(=C\c1ccc2c(c1)OCO2)/C(=C/c1ccc2c(c1)OCO2)NC=O [NPS0159, (1Z,2Z)-3-(1,3-benzodioxol-5-yl)-1-(1,3-benzodioxol-5-ylmethylen)-2-(formylamino)prop-2-enylformamide] the “maximum protection … by XXO” value ([1]; at 1000 ng/ml) was 35%, the “antioxidant capacity” value [2] was 165±44 μM TE and the “maximum ROS reduction” value ([3]; at 100 ng/ml) was 27%. The “maximum protection against apoptosis” value ([4]; at 10 μg/ml) was 23%.
